Measurements: patent US20260199365A1, “BIS-SULFONAMIDE SHIP1 ACTIVATORS” (The Research Foundation for the State University of New York, priority 2022, published 2026)

Target: T1, recombinant human truncated SHIP1 (tSHIP1) (Homo sapiens, UniProt Q92835)
T1 construct: tSHIP1 (SHIP1, residues 397-864) was amplified from pET24TEV-tSHIP1; His tag; made in house; host or cells: E. coli BL21
T1 sequence (Q92835 397-864): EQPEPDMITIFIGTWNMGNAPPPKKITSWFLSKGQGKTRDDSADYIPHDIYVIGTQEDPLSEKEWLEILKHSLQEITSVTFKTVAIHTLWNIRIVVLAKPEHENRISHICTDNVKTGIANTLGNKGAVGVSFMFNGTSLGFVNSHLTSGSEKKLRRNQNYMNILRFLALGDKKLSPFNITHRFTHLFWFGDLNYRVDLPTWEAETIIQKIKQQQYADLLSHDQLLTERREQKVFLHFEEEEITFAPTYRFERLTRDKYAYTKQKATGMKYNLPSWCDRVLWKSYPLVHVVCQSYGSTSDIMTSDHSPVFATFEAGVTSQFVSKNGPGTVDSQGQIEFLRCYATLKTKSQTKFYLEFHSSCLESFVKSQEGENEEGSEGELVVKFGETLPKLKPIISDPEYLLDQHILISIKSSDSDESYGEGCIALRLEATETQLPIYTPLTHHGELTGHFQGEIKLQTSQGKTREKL
Experiment: Malachite Green Phosphatase Release Assay (SHIP1 phosphatase activity)
Format: biochemical
Conditions: for SHIP1 activation, increase in the malachite green assay: initial testing
Summary of the method: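 Truncated SHIP1 (residues 397-864, His-tagged, E. coli-expressed) was preincubated 2 min at room temperature with compound in pH 7.4 Hepes buffer with MgCl2/EDTA. 100 μM PI(3,4,5)P3-diC8 was then added and the reaction run 20 min at 37 °C. Phosphate release was read with malachite green at 620 nm, as % of DMSO control activity.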

Cc1sc(S(=O)(=O)N2CCSCC2)cc1NC(=O)CNS(=O)(=O)c1ccc(F)cc1 [Compound K306, 2-(4-Fluorobenzenesulfonamido)-N-[2-methyl-5-(thiomorpholine-4-sulfonyl)thiophen-3-yl]acetamide]
Phosphatase activity in the Malachite Green Assay, analog concentration 125 μM (125 μM analog, 100 μM PI(3,4,5)P3-diC8 substrate, normalized to vehicle control (DMSO) = 100%): 95%
Phosphatase activity in the Malachite Green Assay, analog concentration 250 μM (250 μM analog, 100 μM PI(3,4,5)P3-diC8 substrate, normalized to vehicle control (DMSO) = 100%): 106%
Phosphatase activity in the Malachite Green Assay, analog concentration 500 μM (500 μM analog, 100 μM PI(3,4,5)P3-diC8 substrate, normalized to vehicle control (DMSO) = 100%, >100% activation, <100% inhibition): 133%
SHIP1 activation, increase in the malachite green assay (tested at 250 μM): 6%
SHIP1 activation, increase in the malachite green assay (tested at 500 μM): 33%
